The structures appear in SMILES notation. Several values for one entry are separate records, joined by “and”; a condition that tells them apart may be missing. Identical values can stand only once.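 Interpolation was linear, between the two tested concentrations surrounding the appropriate level; five concentrations were tested over 48 hours in 96-well plates. GI50 is the concentration that inhibits growth by half. TGI: concentration producing complete growth inhibition.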

Among the test systems are A549 NSCLC; EKVX NSCLC; HT29 colon; IGROV1 ovarian; LOX IMVI melanoma; M14 melanoma; NCI-H460 lung; NCI-H522 lung; OVCAR-5 ovarian; PC-3 prostate.
Experiment in all cases: DTP human tumour cell line panel, 48 h

By GI50 is commonly meant the concentration at which growth is held to half of that of the control. One may read the TGI as the concentration giving total growth inhibition. A higher TGI goes with less potent growth arrest. `CCS(=O)(=O)c1cccc(-c2cc(C(=O)NC3CCN(C)CC3)c(C)c3[nH]c4ncc(C)cc4c23)c1`: the GI50 in the assay on A549 NSCLC was 0.49 µM and 0.169 µM; in the assay with EKVX NSCLC, 1.33 µM and 0.898 µM; with HT29 colon, 0.372 µM and 0.236 µM; in the assay on IGROV1 ovarian it was 0.179 µM and 0.111 µM; in the assay on LOX IMVI melanoma, 0.168 µM and 0.16 µM; in the assay on M14 melanoma, 1.15 µM and 0.967 µM. Moreover, the GI50 in the assay on NCI-H460 lung was 0.201 µM and 0.0843 µM; with NCI-H522 lung, 0.148 µM and 0.164 µM; in the assay with OVCAR-5 ovarian it was 0.463 µM and 0.34 µM; with PC-3 prostate it was 0.374 µM and 0.104 µM. The TGI was 4.12 µM and 3.79 µM in the assay with A549 NSCLC; > 10 µM and 11 µM in the assay with EKVX NSCLC; > 8.44 µM and 10.3 µM with HT29 colon; 1.76 µM and 2.55 µM in the assay on IGROV1 ovarian; 1.22 µM and 0.747 µM in the assay on LOX IMVI melanoma; > 8.78 µM and 6.73 µM in the assay on M14 melanoma. Also, the TGI in the assay on NCI-H460 lung is 4.96 µM and 1.64 µM; in the assay with NCI-H522 lung, 2.27 µM and 1.68 µM; with OVCAR-5 ovarian, > 9.67 µM and 11.4 µM; in the assay on PC-3 prostate, 5.85 µM and 4.71 µM.

In the case of `CCOc1ccc2cc(-c3nn(CC4CCN(C)CC4)c4ncnc(N)c34)ccc2c1`, the GI50 in the assay with A549 NSCLC was 17.9 µM; in the assay on EKVX NSCLC, 26.4 µM; with HT29 colon, 7.01 µM; in the assay with IGROV1 ovarian it was 11.2 µM; in the assay on LOX IMVI melanoma, 19.4 µM; with M14 melanoma, 15.8 µM. Besides, the GI50 in the assay with NCI-H460 lung was 16.7 µM; with NCI-H522 lung it was 16.6 µM; in the assay with OVCAR-5 ovarian, 14.4 µM; in the assay with PC-3 prostate, 17 µM. In addition, the TGI is 40.2 µM in the assay with A549 NSCLC; greater than 100 µM in the assay on EKVX NSCLC; 27.3 µM with HT29 colon; 31.4 µM with IGROV1 ovarian; 59 µM in the assay with LOX IMVI melanoma; 32.5 µM with M14 melanoma. The TGI with NCI-H460 lung came to 33.7 µM; in the assay on NCI-H522 lung, 33.5 µM; in the assay with OVCAR-5 ovarian it was 32.2 µM; in the assay on PC-3 prostate it was 43.5 µM.

With `CSC(=S)NCc1cn(C)c2ccccc12`, the GI50 was 38.1 µM with A549 NSCLC; 32 µM in the assay on EKVX NSCLC; 65.3 µM with HT29 colon; 26.1 µM in the assay with IGROV1 ovarian; 26.5 µM in the assay on LOX IMVI melanoma; 64.8 µM in the assay on M14 melanoma. Besides, the GI50 in the assay with NCI-H460 lung is 29.4 µM; with NCI-H522 lung, 21.5 µM; in the assay with OVCAR-5 ovarian it was 44.1 µM; in the assay on PC-3 prostate, 33 µM. Further, the TGI is greater than 100 µM in the assay on A549 NSCLC; greater than 100 µM with EKVX NSCLC; greater than 100 µM with HT29 colon; greater than 100 µM in the assay with IGROV1 ovarian; 94.1 µM with LOX IMVI melanoma; greater than 100 µM in the assay on M14 melanoma. Moreover, the TGI is greater than 100 µM with NCI-H460 lung, 86.1 µM in the assay on NCI-H522 lung, greater than 100 µM with OVCAR-5 ovarian and greater than 100 µM in the assay on PC-3 prostate.

On to `Cc1cc(C)nc(NC(=O)COc2ccc(Cl)cc2)c1`, for which the TGI in the assay on A549 NSCLC, in the assay with EKVX NSCLC, with HT29 colon, in the assay on IGROV1 ovarian, in the assay with LOX IMVI melanoma and with M14 melanoma was greater than 100 µM each time. Besides, the TGI in the assay with NCI-H460 lung, with NCI-H522 lung, in the assay on OVCAR-5 ovarian and with PC-3 prostate was greater than 100 µM in each case.

With `COc1ccc(N=c2nc3sc4cc(Cl)ccc4n3c(N)c2C#N)cc1`, the GI50 with A549 NSCLC was 15.4 µM; with EKVX NSCLC it was 2.45 µM; in the assay with HT29 colon, 1.31 µM; in the assay with IGROV1 ovarian it was 3.48 µM; in the assay on LOX IMVI melanoma, 2.06 µM; in the assay on M14 melanoma, 4.45 µM. Besides, the GI50 with NCI-H460 lung is 21.1 µM; in the assay on NCI-H522 lung, 20.6 µM; with OVCAR-5 ovarian, 5.21 µM; with PC-3 prostate, 15.4 µM. For the same compound, the TGI in the assay with A549 NSCLC is greater than 100 µM; in the assay with EKVX NSCLC, greater than 100 µM; in the assay on HT29 colon, greater than 100 µM; with IGROV1 ovarian it was greater than 66.1 µM; with LOX IMVI melanoma, 5.07 µM; with M14 melanoma it was greater than 100 µM. Also, the TGI in the assay on NCI-H460 lung, with NCI-H522 lung, with OVCAR-5 ovarian and with PC-3 prostate was greater than 100 µM in each case.

For `Cn1cc(-c2csc(-c3ccc(Cl)cc3)n2)c2cccnc21`, the GI50 in the assay on A549 NSCLC is 17.6 µM; in the assay on EKVX NSCLC it was 2.85 µM; in the assay on HT29 colon, 13.2 µM; with IGROV1 ovarian, 22.3 µM; in the assay on LOX IMVI melanoma, 12.4 µM; with M14 melanoma, 12 µM. Moreover, the GI50 was 16 µM in the assay on NCI-H460 lung, 13.6 µM with NCI-H522 lung, 14.2 µM in the assay on OVCAR-5 ovarian and 11.4 µM with PC-3 prostate. For the same compound, the TGI was 46.4 µM in the assay with A549 NSCLC; 26.1 µM in the assay with EKVX NSCLC; 25.9 µM in the assay with HT29 colon; greater than 100 µM in the assay on IGROV1 ovarian; 24.9 µM with LOX IMVI melanoma; 24.8 µM in the assay with M14 melanoma. The TGI came out at 34.4 µM in the assay with NCI-H460 lung, 38.2 µM in the assay with NCI-H522 lung, 32.7 µM in the assay with OVCAR-5 ovarian and 34.2 µM with PC-3 prostate.

For the compound `COc1ccc2c(c1)[n+](=O)c(/C=C/C(=O)c1cc(OC)c(OC)c(OC)c1)c(C)n2[O-]`, the GI50 in the assay on A549 NSCLC was 21.5 µM; in the assay on EKVX NSCLC it was 5.82 µM; with HT29 colon it was 4.35 µM; in the assay on IGROV1 ovarian, 18.2 µM; in the assay on LOX IMVI melanoma, 3.95 µM; in the assay on M14 melanoma, 3.55 µM. The GI50 in the assay with NCI-H460 lung was 13.3 µM; with NCI-H522 lung, 1.32 µM; with OVCAR-5 ovarian it was 28.7 µM; in the assay on PC-3 prostate, 15.7 µM. Further, the TGI in the assay on A549 NSCLC is greater than 100 µM; in the assay with EKVX NSCLC, greater than 100 µM; with HT29 colon, 50.9 µM; in the assay with IGROV1 ovarian, greater than 100 µM; in the assay on LOX IMVI melanoma, 28.6 µM; in the assay with M14 melanoma it was 23.5 µM. Besides, the TGI with NCI-H460 lung is 45.5 µM; in the assay on NCI-H522 lung it was 3.45 µM; in the assay on OVCAR-5 ovarian, greater than 100 µM; in the assay on PC-3 prostate, greater than 100 µM.

With `CCN(CC)c1ccc(/C=N/N=C(N)N)cc1`, the GI50 with A549 NSCLC was 4.99 µM; in the assay with EKVX NSCLC it was 7.59 µM; with HT29 colon it was 3.24 µM; in the assay on IGROV1 ovarian it was 8.11 µM; in the assay on LOX IMVI melanoma, 5.02 µM; in the assay on M14 melanoma, 4 µM. Also, the GI50 with NCI-H460 lung was 3.57 µM; in the assay on NCI-H522 lung, 1.91 µM; in the assay with OVCAR-5 ovarian it was 17.1 µM; in the assay on PC-3 prostate it was 3.51 µM. Also, the TGI is greater than 100 µM in the assay with A549 NSCLC; 93.8 µM with EKVX NSCLC; 10.8 µM with HT29 colon; 55.1 µM in the assay on IGROV1 ovarian; 19.9 µM in the assay on LOX IMVI melanoma; 17 µM with M14 melanoma. Further, the TGI with NCI-H460 lung was 15.1 µM; in the assay on NCI-H522 lung, 4.8 µM; with OVCAR-5 ovarian it was greater than 100 µM; in the assay with PC-3 prostate it was 92.9 µM.
